{"source": "patent US20220273688A1", "about": "“Treatment of Glycosylation Deficiency Diseases” (Wellstat Therapeutics Corporation, priority 2014, published 2022)", "key": {"[1]": {"tested_on": "Phosphoglucomutase-1 (PGM-1) deficiency", "settings": "galactose 0.5 to 1 g/kg per day; cited from earlier work"}, "[2]": {"tested_on": "patient with congenital disorder of glycosylation (reduced availability of a uridine-diphospho sugar)", "assay": "Treatment of a CDG patient with oral uridine triacetate", "assay_type": "in vivo, human", "settings": "2 grams per square meter of body surface area, three times per day", "protocol": "A patient displaying developmental delays is diagnosed with a congenital disorder of glycosylation by detection of a mutation affecting glycosylation by reducing availability of a uridine-diphospho sugar, corroborated by biochemical measurements in cells from the patient. The patient is treated with oral uridine triacetate at a dose of 2 grams per square meter of body surface area, administered three times per day."}, "[3]": {"tested_on": "patient with GNE myopathy", "assay": "Treatment of a GNE myopathy patient with N-acetylmannosamine plus uridine triacetate", "assay_type": "in vivo, human", "settings": "uridine triacetate 2 g/m2 BSA twice per day with oral N-acetylmannosamine 3 to 10 grams per day", "protocol": "A patient displaying progressive distal muscle weakness, with vacuoles and filamentous inclusions in a muscle biopsy, is diagnosed with GNE myopathy by testing for mutations in GNE, which result in impaired synthesis of endogenous sialic acid. The patient is treated with oral N-acetylmannosamine at a dose of 3 to 10 grams per day. The patient is also treated with uridine triacetate a dosage of 2 grams per square meter of body surface area administered twice per day."}, "[4]": {"tested_on": "patient with phosphoglucomutase-1 deficiency (Type II CDG)", "assay": "Treatment of a phosphoglucomutase-1 deficiency patient with d-galactose plus uridine triacetate", "assay_type": "in vivo, human", "settings": "uridine triacetate 2 g/m2 BSA twice per day with 1 gram/kg d-galactose per day", "source_text": "A patient with multisystem disease consistent with phosphoglucomutase deficiency receives a definitive diagnosis via detection of impaired transferring glycosylation and a mutation in PGM-1."}, "[5]": {"tested_on": "patient with GPT deficiency (Type II CDG)", "assay": "Treatment of a GPT deficiency patient with N-acetylglucosamine plus uridine triacetate", "assay_type": "in vivo, human", "settings": "uridine triacetate 2 g/m2 BSA twice per day with N-acetylglucosamine 200 mg/kg per day", "protocol": "A patient displaying severe hypotonia, medically intractable seizures, developmental delay andmicrocephaly is diagnosed with a deficiency of activity of the enzyme GPT, a Type II CDG, by detection of a mutation in its encoding gene DPAGT-1. (“GPT” is the enzyme dolichol phosphate N-acetyl-glucosamine-1 phosphate transferase; “DPAGT-1” is the gene that encodes GPT.) The patient is treated with N-acetylglucosamine at a dose of 200 mg/kg per day. The patient is also treated with uridine triacetate a dosage of 2 grams per square meter of body surface area administered twice per day."}}, "data": [{"smiles": "O=C[C@H](O)[C@@H](O)[C@@H](O)[C@H](O)CO", "note": "[galactose]", "values": [{"measurement": "symptom resolution", "setting": "[1]", "value": "partial resolution of some symptoms"}]}, {"smiles": "CC(=O)OC[C@H]1O[C@@H](n2ccc(=O)[nH]c2=O)[C@H](OC(C)=O)[C@@H]1OC(C)=O", "note": "[uridine triacetate, 2′,3′,5′-tri-O-acetyluridine]", "values": [{"measurement": "response to treatment (protein glycosylation and clinical condition)", "setting": "[2]", "value": "responds to treatment, displaying biochemical measures of improved protein glycosylation and concurrent improvements in clinical condition"}, {"measurement": "clinical response versus N-acetylmannosamine alone", "setting": "[3]", "value": "improves the clinical response beyond that achieved with N-acetylmannosamine alone"}, {"measurement": "clinical response versus d-galactose alone", "setting": "[4]", "value": "improves the clinical response beyond that achieved with d-galactose alone"}, {"measurement": "clinical response versus N-acetylglucosamine alone", "setting": "[5]", "value": "improves the clinical response beyond that achieved with N-acetylglucosamine alone"}]}]}
